The values that follow are results of earlier work, collected in patent US10881127B1, “Manufacturing method of water-solubilized solution of mastic resin” (VENN SKINCARE, INC., priority 2019, dated 2021).

The conditions of this data set: in room temperature or in water.

SMILES strings stand for the structures.

For the compound `O=C1O[C@H]([C@@H](O)CO)C(O)=C1O` [L-ascorbic acid], the “stability of L-ascorbic acid” value was “easily oxidized and broken”.
